From patent US12503452B2 (Curza Global, LLC, priority 2019, dated 2025)
Structures can show the parent of a compound that is named as a salt. Where two headings read alike, the source gives them in different places.

Key:
[1] = test system: E. coli S30 extract (bacterial protein synthesis); test: E. coli S30 extract coupled transcription-translation luciferase assay (inhibition of bacterial protein synthesis); format: biochemical; details: class by IC50 or % inhibition @ 1 μM, read-out: S30 IC50 (μM/% inhib.)
In short: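 Cell-free coupled transcription-translation in E. coli S30 circular-DNA extract, with pBESTluc plasmid as template and complete amino acid mix. Eight 2-fold compound dilutions were incubated with the extract 1 h at 37 °C, chilled, then luciferase luminescence was read. % inhibition was taken relative to no-inhibitor wells; no-DNA wells gave background.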

[2] = target: Rabbit Reticulocyte Lysate (eukaryotic protein synthesis); test: Rabbit reticulocyte lysate luciferase assay (inhibition of eukaryotic protein synthesis); format: biochemical; details: class by IC50 or % inhibition @ 1 μM, read-out: Rabbit reticulocyte IC50 (μM/% inhib.)
In short: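 Nuclease-treated rabbit reticulocyte lysate translating luciferase control RNA, with complete amino acids, was incubated at 30° C. for 90 minutes with 2-fold serial compound dilutions. Luminescence was measured after adding luciferase reagent. % inhibition was relative to water controls, with no-RNA wells as background.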

[3] = test system: A. baumannii (Ab); test: Broth microdilution minimum inhibitory concentration (MIC); format: cell-based; details: for MIC: Acinetobacter baumannii, read-out: Ab + bicarb MIC
In short: (§1)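 CLSI broth microdilution (M07-A9, slightly modified) in CAMHB, optionally with 6.25 or 25 mM sodium bicarbonate or 0–50% heat-inactivated human serum. Two-fold serial dilutions (8 concentrations, triplicate) were inoculated at 5×10^4 CFU/well from 0.5 McFarland cultures grown at 35±2 °C.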

[4] = test system: E. coli (Ec); test: as above; format: cell-based; details: for MIC: Escherichia coli, read-out: E. coli + bicarb MIC
In short: as §1

[5] = test system: E. faecalis (Ef); test: as above; format: cell-based; details: for MIC: Enterococcus faecalis, read-out: Ef + bicarb MIC
In short: as §1

[6] = test system: P. aeruginosa (Pa); test: as above; format: cell-based; details: for MIC: Pseudomonas aeruginosa, read-out: Pa MIC + bicarb
In short: as §1

[7] = test system: S. aureus (Sa); test: as above; format: cell-based; details: for MIC: Staphylococcus aureus, read-out: Sa + bicarb MIC
In short: as §1

[8] = A. baumannii, growth medium with sodium bicarbonate
[9] = E. coli, growth medium with sodium bicarbonate
[10] = P. aeruginosa, growth medium with sodium bicarbonate
[11] = S. aureus, growth medium with sodium bicarbonate

SMILES	IC50 [1] [µM]	IC50 [2] [µM]	MIC [3] [µg/mL]	MIC [4] [µg/mL]	MIC [5] [µg/mL]	MIC [6] [µg/mL]	MIC [7] [µg/mL]	IC50 ([1]; hydrochloride salt) [µM]	Ab + bicarb MIC [3, 8]	E. coli + bicarb MIC [4, 9]	Ef + bicarb MIC ([5]; E. faecalis, growth medium with sodium bicarbonate, hydrochloride salt)	Pa MIC + bicarb [6, 10]	Sa + bicarb MIC [7, 11]	MIC [3, 8] [µg/mL]	MIC [4, 9] [µg/mL]	MIC ([5]; E. faecalis, growth medium with sodium bicarbonate) [µg/mL]	MIC [6, 10] [µg/mL]	MIC [7, 11] [µg/mL]
NC1CCN(Cc2ccc(-n3ccc(NC(=O)N4C[C@H]5C[C@@H](N)C[C@H]5C4)nc3=O)cc2)CC1 [Compound 295, trifluoroacetate salt]	> 1	> 1	> 32	> 32	> 32	> 32	> 32	–	–	–	–	–	–	–	–	–	–	–
CC(N)C1CCN(Cc2ccc(-n3ccc(NC(=O)N4CCN(C(=O)C(C)(C)N)CC4)nc3=O)cc2)CC1 (centres unmarked) [Compound 299, hydrochloride salt]	–	> 1	–	–	–	–	–	0.5 to 1	+ (An MIC value (μg/mL) that is 32 μg/mL or greater)	+++ (An MIC value (μg/mL) that is less than 8 μg/mL)	++ (An MIC value (μg/mL) that is 8 μg/mL or greater and less than 32 μg/mL)	+ (An MIC value (μg/mL) that is 32 μg/mL or greater)	+++ (An MIC value (μg/mL) that is less than 8 μg/mL)	–	–	–	–	–
CNC1CCC(N(Cc2ccc(-n3ccc(NC(=O)N4CCN(C(=O)C(C)(C)N)CC4)nc3=O)cc2)CC2CC2)CC1 (centres unmarked) [Compound 301, hydrochloride salt]	0.5 to 1	> 1	8 to 32	< 8	< 8	> 32	< 8	–	–	–	–	–	–	–	–	–	–	–
NC1CCCN(CCc2ccc(-n3ccc(NC(=O)N4CCN(C(=O)C5CCCN5)CC4)nc3=O)cc2)CC1 (centres unmarked) [Compound 310, hydrochloride salt]	0.5 to 1	> 1	> 32	< 8	> 32	> 32	8 to 32	–	–	–	–	–	–	–	–	–	–	–
CCN(Cc1ccc(-n2ccc(NC(=O)N3CCN(C(=O)CNC)CC3)nc2=O)cc1)C1CCC(N)CC1 (centres unmarked) [Compound 313, hydrochloride salt]	0.5 to 1	> 1	> 32	< 8	> 32	> 32	< 8	–	–	–	–	–	–	–	–	–	–	–
CCN(Cc1ccc(-n2ccc(NC(=O)N3CCN(C(=O)C4(N)CCC4)CC3)nc2=O)cc1)C1CCC(N)CC1 (centres unmarked) [Compound 315, hydrochloride salt]	> 1	> 1	> 32	8 to 32	> 32	> 32	8 to 32	–	–	–	–	–	–	–	–	–	–	–
COc1cc(-n2ccc(NC(=O)N3CCN(C(=O)C(C)(C)N)CC3)nc2=O)ccc1CN(CC1CC1)C1CCC(N)CC1 (centres unmarked) [Compound 317, hydrochloride salt]	< 0.5	> 1	> 32	< 8	8 to 32	> 32	< 8	–	–	–	–	–	–	–	–	–	–	–
CC(C)(N)C(=O)N1CCN(C(=O)Nc2ccn(-c3ccc(CNC4C[C@@H](N)C[C@@H](N)C4)cc3)c(=O)n2)CC1 (some centres unmarked) [Compound 321, hydrochloride salt]	< 0.5	> 1	> 32	8 to 32	> 32	> 32	> 32	–	–	–	–	–	–	–	–	–	–	–
CC(C)(N)C(=O)N1CCN(C(=O)Nc2ccn(-c3ccc(CN[C@H]4CC[C@H](N)CC4)c(F)c3)c(=O)n2)CC1 [Compound 330, 4-(2-Amino-2-methylpropanoyl)-N-(1-(4-(((trans-4-aminocyclohexyl)amino)methyl)-3-fluorophenyl)-2-oxo-1,2-dihydropyrimidin-4-yl)piperazine-1-carboxamide hydrochloride salt]	< 0.5	> 1	> 32	< 8	> 32	> 32	8 to 32	–	–	–	–	–	–	–	–	–	–	–
CC(C)(N)C(=O)N1CCN(C(=O)Nc2ccn(-c3ccc(CN(CC4CC4)C4CCC(N)CC4)c(OC(F)(F)F)c3)c(=O)n2)CC1 (centres unmarked) [Compound 331, hydrochloride salt]	< 0.5	> 1	> 32	< 8	8 to 32	> 32	8 to 32	–	–	–	–	–	–	–	–	–	–	–
CC(C)(N)C(=O)N1CCN(C(=O)Nc2ccn(-c3ccc(CN[C@H]4CC[C@H](N)CC4)c(OC(F)(F)F)c3)c(=O)n2)CC1 [Compound 332, hydrochloride salt]	< 0.5	> 1	> 32	< 8	8 to 32	> 32	8 to 32	–	–	–	–	–	–	–	–	–	–	–
CC(C)(N)C(=O)N1CCN(C(=O)Nc2ccn(-c3ccc(CN4CCCC(N)CC4)c(F)c3)c(=O)n2)CC1 (centres unmarked) [Compound 334, hydrochloride salt]	< 0.5	> 1	> 32	< 8	> 32	> 32	8 to 32	–	–	–	–	–	–	–	–	–	–	–
CC1C[C@@H](NCc2ccc(-n3ccc(NC(=O)N4CCN(C(=O)C(C)(C)N)CC4)nc3=O)cc2)CC[C@@H]1N (some centres unmarked) [Compound 335, hydrochloride salt]	< 0.5	> 1	> 32	< 8	> 32	> 32	< 8	–	–	–	–	–	–	–	–	–	–	–
CC1C[C@@H](N(C)Cc2ccc(-n3ccc(NC(=O)N4CCN(C(=O)C(C)(C)N)CC4)nc3=O)cc2)CC[C@@H]1N (some centres unmarked) [Compound 337]	< 0.5	> 1	–	–	–	–	–	–	–	–	–	–	–	> 32	< 8	8 to 32	> 32	< 8
CCN(Cc1ccc(-n2ccc(NC(=O)N3CCN(C(=O)C(C)(C)N)CC3)nc2=O)cc1)[C@H]1CC[C@H](N)C(C)C1 (some centres unmarked) [Compound 338, hydrochloride salt]	< 0.5	> 1	> 32	< 8	8 to 32	> 32	< 8	–	–	–	–	–	–	–	–	–	–	–
CO[C@H]1C[C@@H](NCc2ccc(-n3ccc(NC(=O)N4CCN(C(=O)C(C)(C)N)CC4)nc3=O)cc2)CC[C@@H]1N [Compound 339, hydrochloride salt]	< 0.5	> 1	> 32	< 8	> 32	> 32	8 to 32	–	–	–	–	–	–	–	–	–	–	–
CO[C@H]1C[C@@H](N(C)Cc2ccc(-n3ccc(NC(=O)N4CCN(C(=O)C(C)(C)N)CC4)nc3=O)cc2)CC[C@@H]1N [Compound 340, hydrochloride salt]	0.5 to 1	> 1	> 32	< 8	> 32	> 32	8 to 32	–	–	–	–	–	–	–	–	–	–	–
CCN(Cc1ccc(-n2ccc(NC(=O)N3CCN(C(=O)C(C)(C)N)CC3)nc2=O)cc1)[C@H]1CC[C@H](N)[C@@H](OC)C1 [Compound 341, hydrochloride salt]	0.5 to 1	> 1	> 32	8 to 32	> 32	> 32	8 to 32	–	–	–	–	–	–	–	–	–	–	–
CC(C)(N)C(=O)N1CCN(C(=O)Nc2ccn(-c3ccc(CNC4CC(N)CC(O)C4)cc3)c(=O)n2)CC1 (centres unmarked) [Compound 342, hydrochloride salt]	< 0.5	> 1	> 32	8 to 32	> 32	> 32	> 32	–	–	–	–	–	–	–	–	–	–	–
CN(Cc1ccc(-n2ccc(NC(=O)N3CCN(C(=O)C(C)(C)N)CC3)nc2=O)cc1)C1CC(N)CC(O)C1 (centres unmarked) [Compound 343, hydrochloride salt]	0.5 to 1	> 1	> 32	8 to 32	> 32	> 32	> 32	–	–	–	–	–	–	–	–	–	–	–
